Results taken from patent US10829458B2 (Araxes Pharma LLC, priority 2015, dated 2020).

Biological target: T1, KRAS G12C 1-169, his-tagged protein, GDP-loaded (Homo sapiens, UniProt P01116, G12C)
T1 construct: KRAS G12C 1-169, his-tagged protein, GDP-loaded
Assay: Biochemical assay: covalent modification of KRAS G12C measured by mass spectrometry (RapidFire/TOF or Q-Exactive)
Settings: covalent binding to KRAS G12C
How it was run: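 GDP-loaded his-tagged KRAS G12C 1-169 at 2 μM in 20 mM Hepes, 150 mM NaCl, 1 mM MgCl2 incubated at room temperature with compound (10, 30 or 100 μM final, 2% DMSO) for 30 min, 2 h or 24 h, then quenched with formic acid. Intact-protein LC-MS (RapidFire/TOF or Q-Exactive) with deconvolution quantified modified versus unmodified protein.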

| SMILES | Binding % (compounds of structure (I)) | further results |
| --- | --- | --- |
| C=CC(=O)N1CCN(c2nc(NCCc3ncccn3)nc3c(F)c(-c4c(O)cccc4F)c(Cl)cc23)CC1 [Example I-171, 1-(4-(6-chloro-8-fluoro-7-(2-fluoro-6-hydroxyphenyl)-2-((2-(pyrimidin-2-yl)ethyl)amino)quinazolin-4-yl)piperazin-1-yl) prop-2-en-1-one] | ++ (++ indicates binding activity from 50 to 90%) |  |
| C=CC(=O)N1CCN(c2nc(NC3CCN(C(C)(C)C)CC3)nc3c(F)c(-c4c(C)ccc5[nH]ncc45)c(Cl)cc23)CC1 [Example I-177, 1-(4-(2-((1-(tert-butyl)piperidin-4-yl)amino)-6-chloro-8-fluoro-7-(5-methyl-1H-indazol-4-yl)quinazolin-4-yl)piperazin-1-yl) prop-2-en-1-one] | +++ (+++ indicates binding activity greater than 90%) |  |
| C=CC(=O)N1CCN(c2nc(OCCc3ncccn3)nc3c(F)c(-c4c(O)cccc4F)c(Cl)cc23)CC1 [Example I-140, 1-(4-(6-chloro-8-fluoro-7-(2-fluoro-6-hydroxyphenyl)-2-(2-(pyrimidin-2-yl)ethoxy)quinazolin-4-yl)piperazin-1-yl) prop-2-en-1-one] | +++ (+++ indicates binding activity greater than 90%) |  |
| C=CC(=O)N1CCN(c2nc(N3CC(CN(C)C)C3)nc3c(F)c(-c4c(C)ccc5[nH]ncc45)c(Cl)cc23)CC1 [Example I-159, 1-(4-(6-chloro-2-(3-((dimethyl-amino)methyl)azetidin-1-yl)-8-fluoro-7-(5-methyl-1H-indazol-4-yl)quinazolin-4-yl)piperazin-1-yl) prop-2-en-1-one] | +++ (+++ indicates binding activity greater than 90%) |  |
| C=CC(=O)N1CCN(c2nc(N3CC4(CN(C)C4)C3)nc3c(F)c(-c4c(C)ccc5[nH]ncc45)c(Cl)cc23)CC1 [Example I-157, 1-(4-(6-chloro-8-fluoro-7-(5-methyl-1H-indazol-4-yl)-2-(6-methyl-2,6-diazaspiro [3.3]heptan-2-yl)quinazolin-4-yl)piperazin-1-yl) prop-2-en-1-one] | +++ (+++ indicates binding activity greater than 90%) |  |
| C=CC(=O)N1CCN(c2nc(OCc3ccc(C)nc3)nc3c(F)c(-c4c(O)cccc4F)c(Cl)cc23)CC1 [Example I-104, 1-(4-(6-chloro-8-fluoro-7-(2-fluoro-6-hydroxyphenyl)-2-((6-methyl-pyridin-3-yl)methoxy)quinazolin-4-yl)piperazin-1-yl) prop-2-en-1-one] | + (+ indicates binding activity up to 50%) |  |
| C=CC(=O)N1CCN(c2nc(OC)nc3c(OC)c(-c4c(O)cccc4F)c(Cl)cc23)CC1 [Example I-154, 1-(4-(6-chloro-7-(2-fluoro-6-hydroxyphenyl)-2,8-dimethoxy-quinazolin-4-yl)piperazin-1-yl) prop-2-en-1-one] | +++ (+++ indicates binding activity greater than 90%) |  |
| C=CC(=O)N1CCN(c2nc(NC3CCN(CC4CC4)CC3)nc3c(F)c(-c4c(O)cccc4F)c(Cl)cc23)CC1 [Example I-110, 1-(4-(6-chloro-2-(1-(cyclopropyl-methyl)piperidin-4-ylamino)-8-fluoro-7-(2-fluoro-6-hydroxyphenyl)quinazolin-4-yl)piperazin-1-yl) prop-2-en-1-one] | +++ (+++ indicates binding activity greater than 90%) |  |
| C=CC(=O)N1CCN(c2nc(OCCN3CCS(=O)(=O)CC3)nc3c(F)c(-c4c(O)cccc4F)c(Cl)cc23)CC1 [Example I-67, 1-(4-(6-chloro-8-fluoro-7-(2-fluoro-6-hydroxyphenyl)-2-(2-dioxothio-morpholino-ethoxy)quinazolin-4-yl)piperazin-1-yl)prop-2-en-1-one] | +++ (+++ indicates binding activity greater than 90%) |  |
| C=CC(=O)N1CCN(c2nc(OCCc3ncccn3)nc3c(F)c(-c4c(C)ccc5[nH]ncc45)c(Cl)cc23)CC1 [Example I-139, 1-(4-(6-chloro-8-fluoro-7-(5-methyl-1H-indazol-4-yl)-2-(2-(pyrimidin-2-yl)ethoxy)quinazolin-4-yl)piperazin-1-yl) prop-2-en-1-one] | +++ (+++ indicates binding activity greater than 90%) |  |
| C=CC(=O)Nc1cccc(-c2ncnc3c(F)c(-c4c(O)cccc4F)c(Cl)cc23)c1 [II-11, N-(3-(6-chloro-8-fluoro-7-(2-fluoro-6-hydroxyphenyl)quinazolin-4-yl)phenyl)acrylamide] |  | Binding % (compounds of structure (II)): + (+ indicates binding activity up to 50%) |
| C=CC(=O)N1CCN(c2nc(NC3CCN(CC(F)F)CC3)nc3c(F)c(-c4c(C)ccc5[nH]ncc45)c(Cl)cc23)CC1 [Example I-167, 1-(4-(6-chloro-2-((1-(2,2-difluoroethyl)piperidin-4-yl)amino)-8-fluoro-7-(5-methyl-1H-indazol-4-yl)quinazolin-4-yl)piperazin-1-yl) prop-2-en-1-one] | ++ (++ indicates binding activity from 50 to 90%) |  |
| C=CC(=O)N1CCN(c2nc(OC3CCOCC3)nc3c(F)c(-c4c(C)ccc5[nH]ncc45)c(Cl)cc23)CC1 [Example I-13, 1-(4-(6-chloro-8-fluoro-7-(5-methyl-1H-indazol-4-yl)-2-(tetrahydro-2H-pyran-4-yloxy)quinazolin-4-yl)piperazin-1-yl)prop-2-en-1-one] | +++ (+++ indicates binding activity greater than 90%) |  |
| C=CC(=O)N1CCN(c2nc(OCc3cccc(C#N)n3)nc3c(F)c(-c4c(O)cccc4F)c(Cl)cc23)CC1 [Example I-122, 6-((4-(4-acryloyl-piperazin-1-yl)-6-chloro-8-fluoro-7-(2-fluoro-6-hydroxyphenyl)quinazolin-2-yloxy)methyl) picolinonitrile] | +++ (+++ indicates binding activity greater than 90%) |  |
| C=CC(=O)N1CCN(c2nc(OCCN3CCOCC3)nc3c(F)c(-c4ccccc4C(F)(F)F)c(Cl)cc23)CC1 [Example I-48, 1-(4-(6-chloro-8-fluoro-2-(2-morpholino-ethoxy)-7-(2-(trifluoromethyl)phenyl)quinazolin-4-yl)piperazin-1-yl)prop-2-en-1-one] | +++ (+++ indicates binding activity greater than 90%) |  |
| C=CC(=O)N1CCN(c2nc(NC3CN(C(C)C)C3)nc3c(F)c(-c4c(O)cccc4F)c(Cl)cc23)CC1 [Example I-174, 1-(4-(6-chloro-8-fluoro-7-(2-fluoro-6-hydroxyphenyl)-2-((1-isopropyl-azetidin-3-yl)amino)quinazolin-4-yl)piperazin-1-yl) prop-2-en-1-one] | + (+ indicates binding activity up to 50%) |  |
| C=CC(=O)N1CCN(c2nc(NCCN3CC(F)(F)C3)nc3c(F)c(-c4c(C)ccc5[nH]ncc45)c(Cl)cc23)CC1 [Example I-141, 1-(4-(6-chloro-2-(2-(3,3-difluoro-azetidin-1-yl)ethylamino)-8-fluoro-7-(5-methyl-1H-indazol-4-yl)quinazolin-4-yl)piperazin-1-yl) prop-2-en-1-one] | +++ (+++ indicates binding activity greater than 90%) |  |
| C=CC(=O)N1CCN(c2nc(NC3CCN(C4CC4)CC3)nc3c(F)c(-c4c(C)ccc5[nH]ncc45)c(Cl)cc23)CC1 [Example I-20, 1-(4-(6-chloro-2-(1-cyclopropyl-piperidin-4-ylamino)-8-fluoro-7-(5-methyl-1H-indazol-4-yl)quinazolin-4-yl)piperazin-1-yl)prop-2-en-1-one] | +++ (+++ indicates binding activity greater than 90%) |  |
| C=CC(=O)N1CCN(c2nc(CCNc3ccccn3)nc3c(F)c(-c4c(O)cccc4F)c(Cl)cc23)CC1 [Example I-201, 1-(4-(6-chloro-8-fluoro-7-(2-fluoro-6-hydroxyphenyl)-2-(2-(pyridin-2-ylamino)ethyl)quinazolin-4-yl)piperazin-1-yl) prop-2-en-1-one] | ++ (++ indicates binding activity from 50 to 90%) |  |
| C=CC(=O)N1CCN(c2nc(NCCN3CC[C@@H](O)C3)nc3c(F)c(-c4c(O)cccc4F)c(Cl)cc23)CC1 [Example I-56, 1-(4-(6-chloro-8-fluoro-7-(2-fluoro-6-hydroxyphenyl)-2-(2-((R)-3-hydroxy-pyrrolidin-1-yl)ethylamino)quinazolin-4-yl)piperazin-1-yl) prop-2-en-1-one] | +++ (+++ indicates binding activity greater than 90%) |  |
| C=CC(=O)N1CCN(c2nc(OCC(=O)N(C)C)nc3c(F)c(-c4c(O)cccc4F)c(Cl)cc23)CC1 [Example I-8, 2-(4-(4-acryloyl-piperazin-1-yl)-6-chloro-8-fluoro-7-(2-fluoro-6-hydroxyphenyl)quinazolin-2-yloxy)-N,N-dimethyl-acetamide] | +++ (+++ indicates binding activity greater than 90%) |  |
| C=CC(=O)N1[C@H](C)CN(c2c(C#N)cnc3c(F)c(-c4c(O)cccc4F)c(Cl)cc23)C[C@@H]1C [III-43] |  | Binding % (compounds of structure (III)): ++ (++ indicates activity from 50% to 90%) |
| C=CC(=O)N1CCN(c2nc(OCCN3CCN(C4CC4)CC3)nc3c(F)c(-c4c(O)cccc4F)c(Cl)cc23)CC1 [Example I-168, 1-(4-(6-chloro-2-(2-(4-cyclopropyl-piperazin-1-yl)ethoxy)-8-fluoro-7-(2-fluoro-6-hydroxyphenyl)quinazolin-4-yl)piperazin-1-yl) prop-2-en-1-one] | +++ (+++ indicates binding activity greater than 90%) |  |
| C=CC(=O)N1CCN(c2nc(NC3CCN(C(C)=O)CC3)nc3c(F)c(-c4c(O)cccc4F)c(Cl)cc23)CC1 [Example I-70, 1-(4-(2-(1-acetyl-piperidin-4-ylamino)-6-chloro-8-fluoro-7-(2-fluoro-6-hydroxyphenyl)quinazolin-4-yl)piperazin-1-yl) prop-2-en-1-one] | +++ (+++ indicates binding activity greater than 90%) |  |
